Experimental data from patent publication US20040044007A1, “Indoline derivatives” (H. Lundbeck A/S, priority 2000, published 2004).
Counter-ions that a name gives are not always drawn.

What was measured:
5-HT2A receptors = target: T1, 5-HT2A receptors (Rattus norvegicus, UniProt P14842); assay: Inhibition of the binding of [3H]Ketanserin to 5-HT2A receptors; settings: [3H]Ketanserin 0.50 nM, membranes from rat brain (cortex); read-out: IC50 (nM) at the 5HT2A-receptor
T1 construct: membranes from rat brain (cortex) in vitro; from tissue; host or cells: rat brain cortex membranes
Experimental: Inhibition of the Binding of [^3H]Ketanserin to 5-HT2A Receptors
The compounds were tested with respect to their affinity for 5-HT2A receptors by determining their ability to inhibit binding of [^3H]Ketanserin (0.50 nM) to membranes from rat brain (cortex) in vitro. Method described in Sanchez et al. Drug Dev. Res. 1991, 22, 239-250.

[1] = target: T2, human cloned dopamine D4.2 receptors (Homo sapiens, UniProt P21917, DEL265-296); assay: Inhibition of the binding of [3H]YM-09151-2 to D4.2 receptors; settings: [3H]YM-09151-2 0.06 nM; for % inhib. at the D4-receptor: % inhibition of binding at 50 nM; for IC50: membranes of CHO-cells, read-out: IC50 (nM) at the D4-receptor
T2 construct: expressed in transfected cells; host or cells: CHO cells
T2 sequence (P21917 with tags, fused parts or gaps DEL265-296): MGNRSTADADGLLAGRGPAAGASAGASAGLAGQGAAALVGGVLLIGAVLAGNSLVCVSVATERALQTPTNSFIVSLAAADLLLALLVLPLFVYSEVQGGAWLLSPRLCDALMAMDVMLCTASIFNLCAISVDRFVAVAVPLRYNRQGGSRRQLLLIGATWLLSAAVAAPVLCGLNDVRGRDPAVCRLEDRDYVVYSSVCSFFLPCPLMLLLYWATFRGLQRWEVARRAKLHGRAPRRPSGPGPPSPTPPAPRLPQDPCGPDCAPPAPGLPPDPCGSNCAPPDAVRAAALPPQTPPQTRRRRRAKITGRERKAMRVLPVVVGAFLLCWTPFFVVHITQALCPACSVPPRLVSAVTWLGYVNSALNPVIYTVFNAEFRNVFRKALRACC
Text: The method is modified from NEN Life Science Products, Inc., technical data certificate PC2533-10/96.

D4 receptor = target: T3, D4 receptor (Homo sapiens, UniProt P21917); settings: various in vitro efficacy assays (Gazi et al.); cited from earlier work
T3 sequence (P21917 1-419): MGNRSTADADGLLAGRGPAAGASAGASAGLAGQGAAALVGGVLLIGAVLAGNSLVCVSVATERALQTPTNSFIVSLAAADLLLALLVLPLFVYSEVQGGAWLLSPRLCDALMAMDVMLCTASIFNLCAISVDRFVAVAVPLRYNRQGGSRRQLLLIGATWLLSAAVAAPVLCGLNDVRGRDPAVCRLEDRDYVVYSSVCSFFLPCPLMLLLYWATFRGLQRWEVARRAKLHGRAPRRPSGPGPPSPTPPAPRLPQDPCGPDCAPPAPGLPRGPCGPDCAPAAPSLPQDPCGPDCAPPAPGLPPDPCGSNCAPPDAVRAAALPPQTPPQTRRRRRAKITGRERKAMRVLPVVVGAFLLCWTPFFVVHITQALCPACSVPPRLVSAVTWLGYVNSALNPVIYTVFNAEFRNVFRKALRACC

T1 sequence (P14842 whole entry): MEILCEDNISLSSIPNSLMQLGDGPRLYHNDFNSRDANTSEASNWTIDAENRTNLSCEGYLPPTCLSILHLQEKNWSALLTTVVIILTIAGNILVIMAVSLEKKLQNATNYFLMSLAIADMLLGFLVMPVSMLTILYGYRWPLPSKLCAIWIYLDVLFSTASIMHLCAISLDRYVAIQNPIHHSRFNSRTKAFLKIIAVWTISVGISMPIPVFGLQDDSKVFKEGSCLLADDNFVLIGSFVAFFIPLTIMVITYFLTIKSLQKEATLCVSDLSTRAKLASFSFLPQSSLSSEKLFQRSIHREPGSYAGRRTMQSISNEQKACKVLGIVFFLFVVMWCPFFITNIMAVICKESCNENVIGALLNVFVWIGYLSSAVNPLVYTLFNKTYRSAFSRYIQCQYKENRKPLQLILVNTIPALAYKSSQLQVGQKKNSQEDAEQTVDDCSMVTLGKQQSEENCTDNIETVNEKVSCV

Structure (SMILES)	melting point [°C]	IC50 (5-HT2A receptors) [nM]	% inhib. at the D4-receptor [1] [%]	IC50 [1] [nM]	Functional activity at D4 receptor (D4 receptor)
CC(=O)N1CC(CCN2CCN(c3ccc(Cl)c(Cl)c3)CC2)c2ccccc21 (single isomer, unassigned; (+)) (as salt: hydrochloride) [Compound 1d, (+)-1-[2-(1-Acetyl-2,3-dihydro-1H-indol-3-yl)ethyl]-4-(3,4-dichlorophenyl)piperazine, hydrochloride]	184 to 186				
CC(=O)N1CC(CCN2CCN(c3ccc(C)c(C)c3)CC2)c2ccccc21.Cl (single isomer, unassigned; (+)) [Compound 1a, (+)-1-[2-(1-Acetyl-2,3-dihydro-1H-indol-3-yl)ethyl]-4-(3,4-dimethylphenyl)piperazine, hydrochloride]		5	88	< 50	
CC(=O)N1CC(CCN2CCN(c3ccc(C)cc3)CC2)c2ccccc21.Cl (single isomer, unassigned; (+)) [Compound 1b, (+)-1-[2-(1-Acetyl-2,3-dihydro-1H-indol-3-yl)ethyl]-4-(4-methylphenyl)piperazine, hydrochloride]	217 to 220	15	88	< 50	
CC(=O)N1CC(CCN2CCC(c3ccc(C)cc3)CC2)c2ccccc21 (single isomer, unassigned; (+)) [Compound 1c, (+)-1-[2-(1-Acetyl-2,3-dihydro-1H-indol-3-yl)ethyl]-4-(4-methylphenyl)piperidine]	112 to 114	17	76	< 50	
CC(=O)N1CC(CCN2CCN(c3ccc(Cl)c(Cl)c3)CC2)c2ccccc21 (single isomer, unassigned; (+)) [Compound 1d, (+)-1-[2-(1-Acetyl-2,3-dihydro-1H-indol-3-yl)ethyl]-4-(3,4-dichlorophenyl)piperazine, hydrochloride]		21	86	< 50	
CC(=O)N1CC(CCN2CCN(c3ccc(Br)cc3)CC2)c2ccccc21 (stereo not drawn) [Compound 1e, (+)-]-[2-(1-Acetyl-2,3-dihydro-1H-indol-3-yl)ethyl]-4-(4-bromophenyl)piperazine, hydrochloride]		17	95	< 50	
CC(=O)N1CC(CCN2CC=C(c3ccc(Cl)c(Cl)c3)CC2)c2ccccc21 (centres unmarked) [Compound 1f, ]-[2-(1-Acetyl-2,3-dihydro-1H-indol-3-yl)ethyl]-4-(3,4-dichlorophenyl)-3,6-dihydro-2H-pyridine, hydrochloride]		27		13	
CC(=O)N1CC(CCN2CCC(c3ccc(Cl)c(Cl)c3)CC2)c2ccccc21 (centres unmarked) [Compound 1g, 1-[2-(1-Acetyl-2.3-dihydro-1H-indol-3-yl)ethyl]-4-(3.4-dichlorophenyl)piperidine, hydrochloride]		21		5.4	
CC(C)Oc1cccnc1N(C)C1CCN(Cc2ccccc2)CC1 [Compound U-101958]					partial D4 receptor agonists
